16 compounds from US8536332B2, “Modulating signal transduction pathways with substituted pyridol [2,3-b] pyrazines” (Aeterna Zentaris GmbH, priority 2007, dated 2013) can be followed below.

For `CNC(=S)Nc1ccc2ncc(Nc3cc(OC)c(OC)c(OC)c3)nc2n1` [Compound 692, 1-Methyl-3-[3-(3,4,5-trimethoxy-phenylamino)-pyrido[2,3-b]pyrazin-6-yl]-thiourea], the melting point fell in the range of 258 to 261 °C.

`CCNC(=O)Nc1ccc2ncc(-c3cccc(OCc4cc(OC)cc(OC)c4)c3)nc2n1` [Compound 121, 1-{3-[3-(3,5-Dimethoxy-benzyloxy)-phenyl]-pyrido[2,3-b]pyrazin-6-yl}-3-ethyl-urea]: the melting point was in the range of 212 to 217 °C.

Take `CCCNC(=O)Nc1cnc2ccc(-c3cc(Cl)c(O)c(Cl)c3)nc2n1` [Compound 551, 1-[6-(3,5-Dichloro-4-hydroxy-phenyl)-pyrido[2,3-b]pyrazin-3-yl]-3-propyl-urea]: the melting point lay within 265 to 268 °C.

`CCNC(=O)Nc1ccc2ncc(-c3ccc(C(=O)OC)cc3)nc2n1` [Compound 132, 4-[6-(3-Ethyl-ureido)-pyrido[2,3-b]pyrazin-3-yl]-benzoic acid methyl ester] registered a melting point of 260 °C.

In the case of `CCNC(=O)Nc1cnc2ccc(Nc3ccc(O)c(Cl)c3)nc2n1` [Compound 31, 1-[6-(3-Chloro-4-hydroxy-phenylamino)-pyrido[2,3-b]pyrazin-3-yl]-3-ethyl-urea], the melting point lay in the range of 277 to 280 °C.

`CCNC(=O)Nc1cnc2ccc(N3CCOCC3)nc2n1` [Compound 225, 1-Ethyl-3-(6-morpholin-4-yl-pyrido[2,3-b]pyrazin-3-yl)-urea]: the melting point lay in the range of 243 to 245 °C.

In turn, `CCNC(=O)Nc1ccc2ncc(-c3ccccc3C(F)(F)F)nc2n1` [Compound 97, 1-Ethyl-3-[3-(2-trifluoromethyl-phenyl)-pyrido[2,3-b]pyrazin-6-yl]-urea] registered a melting point of 240 to 243 °C.

Compound `C=CCNC(=O)Nc1cnc2ccc(-c3ccc(OC)c(OC)c3)nc2n1` [Compound 575, 1-Allyl-3-[6-(3,4-dimethoxy-phenyl)-pyrido[2,3-b]pyrazin-3-yl]-urea] had a melting point of 236 to 238 °C.

As to `CCNC(=O)Nc1ccc2ncc(-c3ccc(-c4ccccc4)cc3F)nc2n1` [Compound 84, 1-Ethyl-3-[3-(3-fluoro-biphenyl-4-yl)-pyrido[2,3-b]pyrazin-6-yl]-urea], the melting point fell in the range of 263.9 to 265.6 °C.

In the case of `CCNC(=S)Nc1cnc2ccc(Nc3cc(OC)c(OC)c(OC)c3)nc2n1` [Compound 200, 1-Ethyl-3-[6-(3,4,5-trimethoxy-phenylamino)-pyrido[2,3-b]pyrazin-3-yl]-thiourea], the melting point amounted to 238 °C.

The compound `COCCCNC(=S)Nc1ccc2ncc(Nc3cc(OC)c(OC)c(OC)c3)nc2n1` [Compound 710, 1-(3-Methoxy-propyl)-3-[3-(3,4,5-trimethoxy-phenylamino)-pyrido[2,3-b]pyrazin-6-yl]-thiourea] had a melting point of 246 °C.

`CCNC(=O)Nc1cnc2ccc(-c3ccc(C)c(N)c3)nc2n1` [Compound 180, 1-[6-(3-Amino-4-methyl-phenyl)-pyrido[2,3-b]pyrazin-3-yl]-3-ethyl-urea]: the melting point was more than 320 °C.

Compound `CCNC(=S)Nc1cnc2ccc(Nc3ccc(C)c(OC)c3)nc2n1` [Compound 210, 1-Ethyl-3-[6-(3-methoxy-4-methyl-phenylamino)-pyrido[2,3-b]pyrazin-3-yl]-thiourea] came in with a melting point of 148 °C.

In the case of `CCNC(=O)Nc1ccc2ncc(-c3cccc(Cl)c3Cl)nc2n1` [Compound 108, 1-[3-(2,3-Dichloro-phenyl)-pyrido[2,3-b]pyrazin-6-yl]-3-ethyl-urea], the melting point is more than 350 °C.

`CCNC(=O)Nc1ccc2ncc(-c3cc(C)c(C)c(C)c3)nc2n1` [Compound 151, 1-Ethyl-3-[3-(3,4,5-trimethyl-phenyl)-pyrido[2,3-b]pyrazin-6-yl]-urea] yielded a melting point of 228 to 233 °C.

Compound `CCNC(=O)Nc1ccc2ncc(Nc3ccc(O)cc3C)nc2n1` [Compound 394, 1-Ethyl-3-[3-(4-hydroxy-2-methyl-phenylamino)-pyrido[2,3-b]pyrazin-6-yl]-urea] yielded a melting point of 272 °C.
